Assay results from paper PMC9457746, “Synthesis of Sulfonamides Incorporating Piperidinyl-Hydrazidoureido and Piperidinyl-Hydrazidothioureido Moieties and Their Carbonic Anhydrase I, II, IX and XII Inhibitory Activity” (Molecules, 2022).

How the values were obtained:
hCA IX = hCA IX (Homo sapiens, UniProt Q16790); test: stopped flow CO2 hydrase assay, hCA IX inhibition
Method: (§1) An Applied Photophysics stopped-flow instrument has been used for assaying the CA catalyzed CO2 hydration activity using the Khalifah procedure [23]. The used indicator was phenol red (0.2 mM), the absorbance maximum was of 557 nm, and the buffer was 20 mM Hepes (pH 7.5), whereas 20 mM Na2SO4 were employed for maintaining the ionic strength constant. […] Uncatalyzed rates were subtracted from the observed total rates. […] Inhibitor and enzyme solutions were preincubated together for 15 min, for assuring the formation of the E–I complex. The inhibition constants were obtained by non-linear least squares using the Cheng–Prusoff equation, as reported earlier [24, 25, 26] and represent the mean from at least three different determinations.

hCA XII = hCA XII (Homo sapiens, UniProt O43570); test: stopped flow CO2 hydrase assay, hCA XII inhibition
Method: as §1

hCA II = hCA II (Homo sapiens, UniProt P00918); test: stopped flow CO2 hydrase assay, hCA II inhibition
Method: as §1

hCA I = hCA I (Homo sapiens, UniProt P00915); test: stopped flow CO2 hydrase assay, hCA I inhibition
Sequence of hCA I (P00915 whole entry): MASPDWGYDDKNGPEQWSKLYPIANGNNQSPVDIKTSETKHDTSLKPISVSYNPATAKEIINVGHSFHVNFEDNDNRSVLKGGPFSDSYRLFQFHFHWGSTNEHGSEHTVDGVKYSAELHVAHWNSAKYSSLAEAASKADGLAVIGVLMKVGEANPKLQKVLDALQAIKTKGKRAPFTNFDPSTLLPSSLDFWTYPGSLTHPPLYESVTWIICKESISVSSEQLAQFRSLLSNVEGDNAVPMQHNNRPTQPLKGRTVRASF
Method: as §1

Sequence of hCA XII (O43570 25-354): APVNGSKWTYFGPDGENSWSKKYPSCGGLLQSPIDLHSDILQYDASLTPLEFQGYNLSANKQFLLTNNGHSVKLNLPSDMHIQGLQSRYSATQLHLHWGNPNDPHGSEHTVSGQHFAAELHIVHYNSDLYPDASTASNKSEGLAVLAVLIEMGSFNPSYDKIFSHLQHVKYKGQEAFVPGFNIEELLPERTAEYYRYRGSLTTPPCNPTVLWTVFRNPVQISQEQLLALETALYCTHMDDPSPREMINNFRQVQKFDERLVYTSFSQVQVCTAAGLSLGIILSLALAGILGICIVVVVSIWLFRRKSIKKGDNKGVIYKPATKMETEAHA

Ki (hCA IX) | Ki (hCA XII) | Ki (hCA II) | Ki (hCA I) | melting point | increase in hCA XII activity as compared to the 3,4-dichloro analog (hCA XII; versus 6g) | hCA IX, hCA XII/hCA I selectivity (hCA IX; hCA IX and hCA XII versus hCA I) | Compound
26.1 nM | 17.7 nM | 41.6 nM | 131 nM | 222 to 223 °C | – | – | NS(=O)(=O)c1ccc(C(=O)N2CCC(C(=O)NNC(=S)Nc3ccc(Cl)cc3)CC2)cc1 [Compound 6f, N-(4-Chlorophenyl)-2-(1-(4-sulfamoylbenzoyl)piperidine-4-carbonyl)hydrazinecarbothioamide]
4.7 nM | 26.9 nM | 22.4 nM | 442 nM | 232 to 233 °C | – | – | NS(=O)(=O)c1ccc(C(=O)N2CCC(C(=O)NNC(=S)Nc3ccc(Cl)c(Cl)c3)CC2)cc1 [Compound 6g, N-(3,4-Dichlorophenyl)-2-(1-(4-sulfamoylbenzoyl)piperidine-4-carbonyl)hydrazinecarbothioamide]
18 nM | 2.6 nM | 53.4 nM | 229 nM | 220 to 221 °C | ~10 fold | – | NS(=O)(=O)c1ccc(C(=O)N2CCC(C(=O)NNC(=S)Nc3ccc(Cl)cc3Cl)CC2)cc1 [Compound 6h, N-(2,4-Dichlorophenyl)-2-(1-(4-sulfamoylbenzoyl)piperidine-4-carbonyl)hydrazinecarbothioamide]
24.2 nM | 10 nM | 21.5 nM | 1340 nM | 179 to 180 °C | – | – | NS(=O)(=O)c1ccc(C(=O)N2CCC(C(=O)NNC(=S)Nc3c(Cl)cccc3Cl)CC2)cc1 [Compound 6i, N-(2,6-Dichlorophenyl)-2-(1-(4-sulfamoylbenzoyl)piperidine-4-carbonyl)hydrazinecarbothioamide]
4.2 nM | 4.6 nM | 13.1 nM | 160 nM | 214 to 215 °C | – | about 35 fold | COc1ccccc1NC(=S)NNC(=O)C1CCN(C(=O)c2ccc(S(N)(=O)=O)cc2)CC1 [Compound 6j, N-(2-methoxyphenyl)-2-(1-(4-sulfamoylbenzoyl)piperidine-4-carbonyl)hydrazine-1-carbothioamide]
25.1 nM | 29.9 nM | 11.2 nM | 146 nM | 214 to 215 °C | – | – | COc1cccc(NC(=S)NNC(=O)C2CCN(C(=O)c3ccc(S(N)(=O)=O)cc3)CC2)c1 [Compound 6k, N-(3-methoxyphenyl)-2-(1-(4-sulfamoylbenzoyl)piperidine-4-carbonyl)hydrazine-1-carbothioamide]
22.1 nM | 27.8 nM | 15.1 nM | 211 nM | > 250 °C | – | – | COc1ccc(NC(=S)NNC(=O)C2CCN(C(=O)c3ccc(S(N)(=O)=O)cc3)CC2)cc1 [Compound 6l, N-(4-Methoxyphenyl)-2-(1-(4-sulfamoylbenzoyl)piperidine-4-carbonyl)hydrazinecarbothioamide]
16.6 nM | 27.3 nM | 36.8 nM | 428 nM | > 250 °C | – | – | COc1cc(NC(=S)NNC(=O)C2CCN(C(=O)c3ccc(S(N)(=O)=O)cc3)CC2)cc(OC)c1OC [Compound 6m, 2-(1-(4-Sulfamoylbenzoyl)piperidine-4-carbonyl)-N-(3,4,5-trimethoxyphenyl)hydrazinecarbothioamide]
6.9 nM | 4.9 nM | 15.2 nM | 431 nM | 219 to 220 °C | – | – | NS(=O)(=O)c1ccc(C(=O)N2CCC(C(=O)NNC(=S)Nc3ccccc3F)CC2)cc1 [Compound 6n, N-(2-Fluorophenyl)-2-(1-(4-sulfamoylbenzoyl)piperidine-4-carbonyl)hydrazinecarbothioamide]
20.1 nM | 15.9 nM | 23 nM | 79.6 nM | 215 to 216 °C | – | – | NS(=O)(=O)c1ccc(C(=O)N2CCC(C(=O)NNC(=S)Nc3ccc(F)cc3)CC2)cc1 [Compound 6p, N-(4-Fluorophenyl)-2-(1-(4-sulfamoylbenzoyl)piperidine-4-carbonyl)hydrazinecarbothioamide]
